{"source": "patent US9023835B2", "about": "“Agent for ameliorating blood-brain barrier disorders” (Nagasaki University, priority 2009, dated 2015)", "key": {"[1]": {"system": "cerebral ischemia model mice (left middle cerebral artery infarction, reperfusion)", "assay": "Tomato lectin staining of cerebral microvessels (blood-brain barrier disorder) in transient cerebral ischemia model mice", "type": "in vivo, C57BL/J6 mice", "details": "for tomato lectin signal (microvessel length) on the ipsilateral-to-ischemia side, cerebrocortical sensation region: 1 h MCAO, i.v. 1 h after reperfusion, ProTα 100 μg/kg, ProTα30 1 mg/kg, ProTα9 0.3 mg/kg, C-term 0.3 mg/kg; for suppression of cerebrovascular collapse (tomato lectin staining, cortex and striatum): Example 4, same experiment as Example 1, ProTα vs ProTα30", "method": "Five minutes later, the whole body was perfused and fixed with para-formaldehyde (PFA); the brain was extracted and further treated with 4% PFA at room temperature for 3 hours. Thereafter, the brain was placed in 25% sucrose solution and allowed to stand at 4° C. overnight. The brain was freeze-embedded in the OCT compound, and a 50 μm-thick section was prepared on a plane including the cerebral cortex sensory area S1 (CS1) or S2 (CS2), bonded onto a silane-coated glass slide, and dried on a heater overnight. Thereafter, using Alexa Fluor488-labeled streptavidin (diluted 300 fold with 2% BSA/PBST), fluorescent staining of tomato lectin was performed, after which the specimen was fixed with the fluorescent antifading agent Fluoromount (Japan Tanner Corporation), and allowed to stand in the dark overnight, then examined using the LSM5 PASCAL confocal laser microscope (Carl Zeiss). Fluorescent signals were cumulatively analyzed for total fluorescence in an approximately 30 μm range by the deconvolution method.\nAfter 0.5 hours of middle cerebral artery obstruction (MCAO), reperfusion was performed; 1 hour later, tomato lectin staining in the CS2 region was observed as a signal of approximately 30 μm length on the contralateral-to-ischemia side (the scale bar is 100 μm, ×20 objective lens).\nThe same experiment as that shown in Example 1 was performed using ProTα and the active form ProTα30, and the effects thereof were comparatively analyzed.\nFurthermore, fluorescent staining of tomato lectin was performed in the same manner as in Example 1, and microvessels were analyzed.\nWhen reperfusion was performed after 1 hour of middle cerebral artery occlusion (MCAO), tomato lectin staining of the cerebrocortical sensation region was observed as a signal roughly 30 μm long on the contralateral-to-ischemia side (Contra)."}, "[2]": {"system": "photoinduced middle cerebral artery thrombosis (PIT) model mice", "assay": "Photoinduced middle cerebral artery thrombosis (PIT) model mice: infarction region volume, motor function", "type": "in vivo, C57BL/J6 mice", "details": "for infarction (infarction region volume): after 24 hours of ischemia, solvent 48%; for motor function evaluation (inability to keep the posture and leaning or loss of spontaneous movement): 24 hours after ischemia, ProTα 100 μg/kg, ProTα30 1 mg/kg, ProTα9 0.1-1 mg/kg", "method": "The left middle cerebral artery of a C57BL/J6 mouse was exposed under the dura, and the photosensitizing dye rose bengal was administered at 30 mg/kg into a caudal vein, after which green light with a given wavelength was irradiated to the middle cerebral artery for 10 minutes to produce a thrombus, and induce infarction with this thrombus. One hour after light irradiation, vehicle, ProTα (100 μg/kg), ProTα30 (1 mg/kg), or ProTα9 (0.1 mg/kg, 0.3 mg/kg and 1 mg/kg) was administered to a caudal vein. Next, after 24 hours of ischemia, infarction region volume was measured to evaluate the motor function in the same manner as the above."}, "[3]": {"system": "transient cerebral ischemia model mice", "assay": "Transient cerebral ischemia model mice: infarction region volume (TTC), clinical score, survival rate", "details": "for infarction region suppressing effect: 0.3 mg/kg i.v.; for infarction (infarction region volume, TTC): 24 h later, solvent alone 48%; for infarction (infarction region volume): solvent 48%", "protocol": "Cerebral ischemia model mice generated by infarcting the left middle cerebral arteries of C57BL/J6 mice were maintained for 1 hour, and then reperfusion was performed. One hour after the reperfusion, a vehicle or ProTα30 (10 μg) was intracerebroventricularly administered (i.c.v.); the mice were examined over time every 24 hours to evaluate the motor function and survival rate. Also, clinical scores indicating movement disorders subsequent to left middle cerebral artery infarction were evaluated according to the rating system of 1: unable to completely extend the right forelimb, 2: rightward turning behavior, 3: unable to keep the posture and leans in the rightward direction, 4: loss of spontaneous movement, 5: death.\nMeanwhile, 1 hour after ischemia and reperfusion, ProTα30 (0 μg (Veh), 0.1 μg or 10 μg) was intracerebroventricularly administered; the whole brain, extracted 24 hours thereafter was treated with 2% TTC (2,3,5-Triphenyltetrazolium chloride) staining solution in solution in PBS, and washed with PBS, after which five coronary sections of 1 mm thickness were taken with coverage of 2 mm anteriorly and 3 mm posteriorly from the bregma. […] The cerebral infarction region was evaluated according to the equation below. […] All volume on the ipsilateral side refers to the entire infarcted and non-infarcted regions on the ischemized side as divided on the median line, whereas all volume on the contralateral side refers to the entire region on the non-ischemized side."}, "[4]": {"system": "permanent cerebral ischemia model mice", "assay": "Permanent cerebral ischemia model mice: infarction region volume, clinical score, survival rate", "details": "no reperfusion, 24 h later, solvent 60%", "protocol": "To permanent cerebral ischemia model mice generated by infarcting the middle cerebral arteries of C57BL/J6 mice, ProTα30 was intravenously administered (i.v.), without reperfusion, 2 hours and 4 hours after the start of ischemia. Next, 24 hours later, in the same manner as the above, infarction region volume was measured.\nTo permanent cerebral ischemia model mice generated by infarcting the middle cerebral arteries of C57BL/J6 mice, ProTα was administered into a caudal vein at 100 μg/kg, without reperfusion, 2, 7, or 12 hours after the start of ischemia. Next, in the same manner as the above, infarction region volume was measured. […] In the same mice, motor function was evaluated. Clinical scores indicating motor function disorders were evaluated in the same manner as Example 5.\nMeanwhile, a vehicle or ProTα (100 μg) was administered into a caudal vein (i.v.) 2 and 4 hours after the start of ischemia, and the mice were examined over time every 24 hours to evaluate the motor function and survival rate."}, "[5]": {"system": "permanent cerebral ischemia model rats", "assay": "Permanent cerebral ischemia model rats: infarction region volume, clinical score, survival rate", "protocol": "To permanent cerebral ischemia model rats generated by infarcting the middle cerebral arteries of Sprague-Dawley rats, ProTα was administered into a caudal vein (i.v.), without reperfusion, 4 hours after the start of ischemia. Next, 24 hours later, infarction region volume was measured in the same manner as the above.\nFurthermore, rats were examined over time every 24 hours to evaluate the motor function and survival rate."}, "[6]": {"details": "1 mg/kg caudal vein 1 hour after light irradiation"}}, "data": [{"substance": "C-term: C-end of ProTα, amino acid sequence TKKQKKTDEDD (SEQ ID NO: 50) [reference compound]", "values": [{"measurement": "tomato lectin signal (microvessel length) on the ipsilateral-to-ischemia side, cerebrocortical sensation region", "setting": "[1]", "result": "observed only as a fragment"}]}, {"substance": "ProTα9: polypeptide consisting of the 52nd amino acid to the 60th amino acid of rat prothymosin α, EVDEEEEEG (SEQ ID NO:6) (consensus amino acid sequence)", "values": [{"measurement": "infarction injury region, dose dependence", "setting": "[2]; 0.1 mg/kg, 0.3 mg/kg and 1 mg/kg caudal vein", "result": "decreased in a dose-dependent fashion"}, {"measurement": "infarction (infarction region volume)", "setting": "[2]; [6]", "result": 30, "unit": "%"}, {"measurement": "motor function evaluation (inability to keep the posture and leaning or loss of spontaneous movement)", "setting": "[2]", "result": "significantly ameliorated"}, {"measurement": "infarction region suppressing effect", "setting": "[3]", "result": "cerebral infarction region suppressing effect"}, {"measurement": "tomato lectin signal (microvessel length) on the ipsilateral-to-ischemia side, cerebrocortical sensation region", "setting": "[1]", "result": "longer signals"}]}, {"substance": "ProTα30: polypeptide consisting of the 49th amino acid to the 78th amino acid of rat prothymosin α (SEQ ID NO:4) (ADNEVDEEEEEGGEEEEEEEEGDGEEEDGD; consensus amino acid sequence)", "values": [{"measurement": "infarction (infarction region volume)", "setting": "[2]; [6]", "result": 30, "unit": "%"}, {"measurement": "motor function evaluation (inability to keep the posture and leaning or loss of spontaneous movement)", "setting": "[2]", "result": "significantly ameliorated"}, {"measurement": "infarction (infarction region volume, TTC)", "setting": "[3]; 0.1 μg i.c.v. 1 h after reperfusion", "result": 44, "unit": "%"}, {"measurement": "infarction (infarction region volume, TTC)", "setting": "[3]; 10 μg i.c.v. 1 h after reperfusion", "result": 38, "unit": "%"}, {"measurement": "motor function evaluation (clinical score)", "setting": "[3]; 10 μg i.c.v., loss of spontaneous movement 3 days after ischemia and reperfusion", "result": "significantly ameliorated"}, {"measurement": "clinical scores (hemiparalysis of degree 3)", "setting": "[3]; 0.275 mg/kg i.v.", "result": "no effect was observed"}, {"measurement": "infarction (infarction region volume)", "setting": "[3]; 0.275 mg/kg i.v. once 1 hour after reperfusion", "result": 39, "unit": "%"}, {"measurement": "infarction region suppressing effect", "setting": "[3]", "result": "cerebral infarction region suppressing effect"}, {"measurement": "clinical scores (hemiparalysis of degree 3)", "setting": "[3]; 1 mg/kg i.v.", "result": "ameliorated significantly"}, {"measurement": "infarction (infarction region volume)", "setting": "[3]; 1 mg/kg i.v. once 1 hour after reperfusion", "result": 13, "unit": "%"}, {"measurement": "survival rate", "setting": "[3]; mouse, in vivo", "result": "about 80%"}, {"measurement": "infarction (infarction region volume)", "setting": "[4]; 1 mg/kg i.v. once, 2 hours after infarction", "result": 34, "unit": "%"}, {"measurement": "infarction (infarction region volume)", "setting": "[4]; i.v. twice, at 2 hours and 4 hours", "result": 27, "unit": "%"}, {"measurement": "tomato lectin signal (microvessel length) on the ipsilateral-to-ischemia side, cerebrocortical sensation region", "setting": "[1]", "result": "longer signals"}, {"measurement": "suppression of cerebrovascular collapse (tomato lectin staining, cortex and striatum)", "setting": "[1]", "result": "suppressing cerebrovascular collapse"}]}, {"substance": "prothymosin α (SDAAVDTSSEITTKDLKEKKEVVEEAEN; UniProt P26350 2-29, looked up) [ProTα, known protein]", "values": [{"measurement": "infarction (infarction region volume)", "setting": "[2]; 100 μg/kg caudal vein 1 hour after infarction", "result": 23, "unit": "%"}, {"measurement": "motor function evaluation (inability to keep the posture and leaning or loss of spontaneous movement)", "setting": "[2]", "result": "significantly ameliorated"}, {"measurement": "survival rate", "setting": "[5]; 100 μg caudal vein, about 2 weeks later, non-dosing group 50% one day after ischemia", "result": "about 75%"}, {"measurement": "infarction (infarction region volume)", "setting": "[5]; 100 μg/kg i.v. 4 hours after infarction, 24 h later, solvent 40%", "result": 25, "unit": "%"}, {"measurement": "cerebrovascular destruction in the CS2 and striata on the ischemized side (tomato lectin staining)", "setting": "[1]; 0.1 mg/kg i.v. 1 hour after reperfusion, examined 24 hours after reperfusion", "result": "disappeared nearly completely"}, {"measurement": "tomato lectin signal (microvessel length) on the ipsilateral-to-ischemia side, cerebrocortical sensation region", "setting": "[1]", "result": "longer signals"}, {"measurement": "suppression of cerebrovascular collapse (tomato lectin staining, cortex and striatum)", "setting": "[1]", "result": "suppressing cerebrovascular collapse"}]}]}
